# What was measured:
# CAMK2A = test: KINOMEscan; type: binding; conditions: 1000 nM
# WEE1 = test: KINOMEscan; type: binding; conditions: 1000 nM
# DCAMKL2 = test: KINOMEscan; type: binding; conditions: 1000 nM
# RIPK5 = test: KINOMEscan; type: binding; conditions: 1000 nM
# TTK = test: KINOMEscan; type: binding; conditions: 1000 nM
# AKT3 = test: KINOMEscan; type: binding; conditions: 1000 nM
# [1] = tested on: JAK3(JH1domain-catalytic); test: KINOMEscan; type: binding; conditions: 1000 nM
# CSNK1D = test: KINOMEscan; type: binding; conditions: 1000 nM
# TSSK3 = test: KINOMEscan; type: binding; conditions: 1000 nM
# CSNK1G2 = test: KINOMEscan; type: binding; conditions: 1000 nM
# TNK2 = test: KINOMEscan; type: binding; conditions: 1000 nM
# SRPK1 = test: KINOMEscan; type: binding; conditions: 1000 nM
# JNK3 = test: KINOMEscan; type: binding; conditions: 1000 nM
# ARK5 = test: KINOMEscan; type: binding; conditions: 1000 nM
# QSK = test: KINOMEscan; type: binding; conditions: 1000 nM
# PIK3CA(C420R) = test: KINOMEscan; type: binding; conditions: 1000 nM
# [2] = tested on: JAK2(JH1domain-catalytic); test: KINOMEscan; type: binding; conditions: 1000 nM
# CAMK1B = test: KINOMEscan; type: binding; conditions: 1000 nM
# [3] = tested on: REC-1 cell (MCL)-inoculated xenograft; test: REC-1 cell subcutaneous xenograft tumor model; type: in vivo; conditions: for TGI: REC-1 xenograft, 14 days
# MET = test: KINOMEscan; type: binding; conditions: 1000 nM
# NEK7 = test: KINOMEscan; type: binding; conditions: 1000 nM
# TLK2 = test: KINOMEscan; type: binding; conditions: 1000 nM
# EGFR(L858R,T790M) = test: KINOMEscan; type: binding; conditions: 1000 nM
# ICK = test: KINOMEscan; type: binding; conditions: 1000 nM
# DMPK = test: KINOMEscan; type: binding; conditions: 1000 nM
# PRKG2 = test: KINOMEscan; type: binding; conditions: 1000 nM
# [4] = tested on: RSK4(Kin.Dom.2-C-terminal); test: KINOMEscan; type: binding; conditions: 1000 nM
# NEK10 = test: KINOMEscan; type: binding; conditions: 1000 nM
# BRAF = test: KINOMEscan; type: binding; conditions: 1000 nM
# FLT3 = test: KINOMEscan; type: binding; conditions: 1000 nM
# TAOK2 = test: KINOMEscan; type: binding; conditions: 1000 nM
# PIP5K2B = test: KINOMEscan; type: binding; conditions: 1000 nM
# PAK2 = test: KINOMEscan; type: binding; conditions: 1000 nM
# NEK4 = test: KINOMEscan; type: binding; conditions: 1000 nM
# RAF1 = test: KINOMEscan; type: binding; conditions: 1000 nM
# [5] = tested on: RSK3(Kin.Dom.2-C-terminal); test: KINOMEscan; type: binding; conditions: 1000 nM
# DDR1 = test: KINOMEscan; type: binding; conditions: 1000 nM
# FLT3(ITD) = test: KINOMEscan; type: binding; conditions: 1000 nM
# ROS1 = test: KINOMEscan; type: binding; conditions: 1000 nM
# DDR2 = test: KINOMEscan; type: binding; conditions: 1000 nM
# EPHA7 = test: KINOMEscan; type: binding; conditions: 1000 nM
# MUSK = test: KINOMEscan; type: binding; conditions: 1000 nM
# MAPKAPK2 = test: KINOMEscan; type: binding; conditions: 1000 nM
# GSK3A = test: KINOMEscan; type: binding; conditions: 1000 nM
# YSK1 = test: KINOMEscan; type: binding; conditions: 1000 nM
# DAPK3 = test: KINOMEscan; type: binding; conditions: 1000 nM
# MINK = test: KINOMEscan; type: binding; conditions: 1000 nM
# YANK1 = test: KINOMEscan; type: binding; conditions: 1000 nM
# PYK2 = test: KINOMEscan; type: binding; conditions: 1000 nM
# TIE2 = test: KINOMEscan; type: binding; conditions: 1000 nM
# NEK1 = test: KINOMEscan; type: binding; conditions: 1000 nM
# [6] = tested on: ABL1(T315I)-nonphosphorylated; test: KINOMEscan; type: binding; conditions: 1000 nM
# OSR1 = test: KINOMEscan; type: binding; conditions: 1000 nM
# FLT3(ITD,D835V) = test: KINOMEscan; type: binding; conditions: 1000 nM
# [7] = tested on: NK cells co-seeded with SK-OV-3 cells; test: IFN-γ secretion ELISA, NK cells co-cultured with SK-OV-3 cells in presence of Herceptin; type: cell-based, human; conditions: SK-OV-3 co-culture; 0.1 to 3 μM
# Description: Peripheral blood mononuclear cells (PBMC) were separated from the blood of healthy donors by Ficoll density gradient centrifugation (Histopaque-1077, Sigma-Aldrich). Cells were enriched using a MACS® human NK cell negative-selection isolation kit (Miltenyi Biotec, Germany) according to the manufacturer’s instructions. Purified NK cells were cultured with 1000U/ml IL2 for 48h. […] The concentrations of interferon (IFN)-γ in cell culture supernatants obtained from three independent experiments were detected using commercial ELISA kits (absin, #abs510007), according to the manufacturer’s instructions. The human IFN-γ kit sensitivity was 7.8 pg/ml.
# CSNK1G3 = test: KINOMEscan; type: binding; conditions: 1000 nM
# KIT(D816V) = test: KINOMEscan; type: binding; conditions: 1000 nM
# PIK3CA(M1043I) = test: KINOMEscan; type: binding; conditions: 1000 nM
smiles,measurement,setting,value
C=CC(=O)Nc1cc(Nc2cc(-c3cccc(NC(=O)c4cc5c(s4)CCCC5)c3C)cn(C)c2=O)ccc1N1CCN(CC)CC1 [CHMFL-BTK-85],Percent Control,CAMK2A,82%
same,Percent Control,WEE1,100%
same,Percent Control,DCAMKL2,88%
same,Percent Control,RIPK5,98%
same,Percent Control,TTK,54%
same,Percent Control,AKT3,97%
same,Percent Control,[1],80%
same,Percent Control,CSNK1D,82%
same,Percent Control,TSSK3,100%
same,Percent Control,CSNK1G2,98%
same,Percent Control,TNK2,64%
same,Percent Control,SRPK1,100%
same,Percent Control,JNK3,98%
same,Percent Control,ARK5,97%
same,Percent Control,QSK,100%
same,Percent Control,PIK3CA(C420R),98%
same,Percent Control,[2],100%
same,Percent Control,CAMK1B,100%
same,TGI,[3]; 100 mg/kg/day,65%
same,TGI,[3]; 150 mg/kg/day,79%
same,toxicity signs in REC-1 xenograft model,"[3]; mouse, 100 mg/kg/day",without obvious signs of toxicity
same,Percent Control,MET,62%
same,Percent Control,NEK7,96%
same,Percent Control,TLK2,100%
same,Percent Control,"EGFR(L858R,T790M)",99%
same,Percent Control,ICK,100%
same,Percent Control,DMPK,92%
same,Percent Control,PRKG2,95%
same,Percent Control,[4],83%
same,Percent Control,NEK10,100%
same,Percent Control,BRAF,100%
same,Percent Control,FLT3,80%
same,Percent Control,TAOK2,96%
same,Percent Control,PIP5K2B,100%
same,Percent Control,PAK2,100%
same,Percent Control,NEK4,100%
same,Percent Control,RAF1,88%
same,Percent Control,[5],79%
same,Percent Control,DDR1,100%
same,Percent Control,FLT3(ITD),99%
same,Percent Control,ROS1,98%
same,Percent Control,DDR2,100%
same,Percent Control,EPHA7,100%
same,Percent Control,MUSK,91%
same,Percent Control,MAPKAPK2,86%
same,Percent Control,GSK3A,94%
same,Percent Control,YSK1,80%
same,Percent Control,DAPK3,65%
same,Percent Control,MINK,88%
same,Percent Control,YANK1,100%
same,Percent Control,PYK2,100%
same,Percent Control,TIE2,84%
same,Percent Control,NEK1,95%
same,Percent Control,[6],94%
same,Percent Control,OSR1,100%
same,Percent Control,"FLT3(ITD,D835V)",100%
same,inhibition of Herceptin-induced IFN-γ secretion in NK cells,[7],no apparent inhibition
same,Percent Control,CSNK1G3,100%
same,Percent Control,KIT(D816V),71%
same,Percent Control,PIK3CA(M1043I),71%
